Drawing on paper PMC8833215 (2022), this text covers Kd and binding for 4 molecules.

SMILES strings stand for the structures.

The subject of experiment [1] is 5'GAG/3'CCC internal loop RNA (Cy5-labeled model of pri-miR-27a's Drosha site) (RNA, mismatch bulge abasic) CUGAGGUGAAACAUCCCAG
The experiment in a line: microscale thermophoresis. As to conditions: 1x Binding Buffer; for Kd: 0.1% Tween-20, 10 nM Cy5-RNA, room temperature. (In general: In MST a laser heats a spot of the sample, and binding alters the fluorescence response.)

In experiment [2] the test system is 5'CAG/3'GCC internal loop RNA (closing GC mutated to CG) (RNA, mismatch bulge abasic) CUCAGGUGAAACAUCCGAG
The experiment in a line: microscale thermophoresis. As to conditions: 1x Binding Buffer, 0.1% Tween-20, room temperature; for Kd: no saturable binding.

Experiment [3] deals with fully paired RNA (loop mutated to a base pair) (RNA, hairpin) CUGAGGUGAAACAUCUCAG
The experiment in a line: microscale thermophoresis. To be noted: 1x Binding Buffer, 0.1% Tween-20, room temperature.

The test system of experiment [4] is WT pri-miR-27a (unlabeled miR-27a precursor) (RNA, miRNA) GAGAGAGGCCCCGAAGCCUGUGCCUGGCCUGAGGAGCAGGGCUUAGCUGCUUGUGAGCAGGGUCCACACCAAGUCGUGUUCACAGUGGCUAAGUUCCGCCCCCCAGGCCCUCACCUCCUCUGGCCUUGCC
The experiment in a line: competitive binding assay. As to conditions: 100 nM compound; competes with Cy5-labeled model of the Drosha site.

In experiment [5] the test system is mutated pri-miR-27a (both 5'GAG/3'CCC loops mutated to base pairs) (RNA, miRNA) GAGAGAGGCCCCGAAGCCUGUGCCUGGCCUGAGGAGCAGGGCUUAGCUGCUUGUGAGCAGGGUCCACACCAAGUCGUGUUCACAGUGGCUAAGUUCCGCUCCUCAGGCCCUCACCUCCUCUGGCCUUGCC
The experiment in a line: competitive binding assay. To be noted: 100 nM compound; competes with Cy5-labeled model of the Drosha site.

For orientation: Kd means the constant that tells how readily two partners part at equilibrium. Read a high Kd as lower affinity. As for `C#CCN(CC(N)=O)C(=O)C[C@H](Cc1c[nH]c2ccccc12)NC(=O)[C@@H]1C[C@H](NC(=O)Cn2c(=O)[nH]c3ccccc3c2=O)CN1`, the Kd in experiment [1] was 90 ± 20 nM; in experiment [2], greater than 50000 nM; in experiment [4] it was 40 ± 30 nM. For the same molecule, the binding result in experiment [3] (no saturable binding) and in experiment [5] was “no” each time.
For the molecule `C#CCN(CC(N)=O)C(=O)C[C@H](Cc1c[nH]c2ccccc12)NC(=O)[C@@H]1C[C@@H](NC(=O)Cn2c(=O)[nH]c3ccccc3c2=O)CN1`, the binding result is “no” in experiment [1] (0.1% Tween-20, room temperature); “no” in experiment [2]; “no” in experiment [3].
On to `C#CCN(CC(N)=O)C(=O)[C@H](Cc1ccccc1C#N)NC(=O)[C@@H]1C[C@H](NC(=O)[C@H]2CCCO2)CN1`, for which the Kd is 530 ± 90 nM in experiment [1] and greater than 50000 nM in experiment [2]. Besides, in experiment [3] (no saturable binding), the binding entry was “no”.
In the same order, the values of `C#CCN(CC(N)=O)C(=O)[C@@H]1CCN1C(=O)[C@@H]1C[C@H](N)CN1C(=O)c1ccccc1C(=O)N1CCOCC1` are 700 ± 100 nM, greater than 50000 nM and “no”.
